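These data come from cells grown in 96-well plates and exposed to compound for 48 hours at five concentrations. At the TGI there is no net growth.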
Legend:
Experiment in all cases: NCI-60 cell line screen, 48 h
OVCAR-3 ovarian = tested on: OVCAR-3 ovarian
TK-10 renal = tested on: TK-10 renal
ACHN renal = tested on: ACHN renal
OVCAR-4 ovarian = tested on: OVCAR-4 ovarian
HCT-15 colon = tested on: HCT-15 colon
CAKI-1 renal = tested on: CAKI-1 renal
UO-31 renal = tested on: UO-31 renal
SK-OV-3 ovarian = tested on: SK-OV-3 ovarian
EKVX NSCLC = tested on: EKVX NSCLC
SF-295 CNS = tested on: SF-295 CNS
M14 melanoma = tested on: M14 melanoma
UACC-257 melanoma = tested on: UACC-257 melanoma
OVCAR-8 ovarian = tested on: OVCAR-8 ovarian
SF-539 CNS = tested on: SF-539 CNS
SW-620 colon = tested on: SW-620 colon
CCRF-CEM leukemia = tested on: CCRF-CEM leukemia
MDA-MB-231 breast = tested on: MDA-MB-231 breast
HL-60(TB) leukemia = tested on: HL-60(TB) leukemia
HOP-92 NSCLC = tested on: HOP-92 NSCLC

SMILES	TGI (OVCAR-3 ovarian)	TGI (TK-10 renal)	TGI (ACHN renal)	TGI (OVCAR-4 ovarian)	TGI (HCT-15 colon)	TGI (CAKI-1 renal)	TGI (UO-31 renal)	TGI (SK-OV-3 ovarian)	TGI (EKVX NSCLC)	TGI (SF-295 CNS)	TGI (M14 melanoma)	TGI (UACC-257 melanoma)	TGI (OVCAR-8 ovarian)	TGI (SF-539 CNS)	TGI (SW-620 colon)	TGI (CCRF-CEM leukemia)	TGI (MDA-MB-231 breast)	TGI (HL-60(TB) leukemia)	TGI (HOP-92 NSCLC)
O=S1(=O)OCCCOS(=O)(=O)C1Br	> 100 µM	> 100 µM	> 100 µM	> 100 µM	> 100 µM	> 100 µM	> 100 µM	> 100 µM	> 100 µM	> 100 µM	> 100 µM	> 100 µM	> 100 µM	> 100 µM	> 100 µM				
COc1ccc(C(CC(=O)c2ccccc2)C(=O)c2ccc3c(c2)OCO3)cc1 (stereo not drawn)		> 100 µM	> 100 µM		> 100 µM	> 100 µM	> 100 µM	> 100 µM	> 100 µM	> 100 µM	> 100 µM	> 100 µM	> 100 µM		> 100 µM	> 100 µM	> 100 µM	> 100 µM	
COc1ccc(-n2cnc3c(NC(C)(C)C(=O)O)ncnc32)cc1	> 100 µM	> 100 µM	> 100 µM	> 100 µM	> 100 µM	> 100 µM	> 100 µM	> 100 µM	> 100 µM	> 100 µM	> 100 µM	> 100 µM	> 100 µM		> 100 µM	> 100 µM	> 100 µM		> 100 µM
O=C1/C(=C/c2ccccc2)CCCC/C1=C\c1ccccc1	> 100 µM	> 100 µM	> 100 µM	> 100 µM	> 100 µM	> 100 µM	> 100 µM	> 100 µM	> 100 µM	> 100 µM	> 100 µM	> 100 µM	> 100 µM	> 100 µM	> 100 µM				> 100 µM
CCn1c(SCC(=O)NNC(=S)Nc2ccc(F)cc2)nc2ccccc2c1=O	> 100 µM	> 100 µM	> 100 µM	> 100 µM	> 100 µM		> 100 µM	> 100 µM	> 100 µM	> 100 µM	> 100 µM	> 100 µM	> 100 µM	> 100 µM	> 100 µM	> 100 µM	> 100 µM	> 100 µM	
C=CC(c1ccccc1)C1(O)c2cccc(O)c2C(=O)c2c(O)cccc21 (stereo not drawn)	38.9 µM	38.6 µM	31.9 µM	33.2 µM	29.4 µM	42.5 µM	41.6 µM		38.6 µM	40.4 µM	34.5 µM	40.2 µM	43 µM	84.5 µM	37 µM		36.7 µM		30.5 µM
CN1CCC/C1=C1\C(=O)c2cccn2C1=O	> 100 µM	> 100 µM	> 100 µM	> 100 µM	> 100 µM	> 100 µM	> 100 µM	> 100 µM	> 100 µM	> 100 µM	> 100 µM	> 100 µM	> 100 µM		> 100 µM	> 100 µM	> 100 µM	> 100 µM	
CCOC(=O)c1c(NC(=O)c2ccc(OC)cc2)sc2c1CCCC2	> 100 µM	> 100 µM	> 100 µM			> 100 µM	> 100 µM		> 100 µM	> 100 µM	> 100 µM	> 100 µM	> 100 µM	> 100 µM	> 100 µM	> 100 µM	> 100 µM	> 100 µM	
COC(=O)/C(=C/CC(N=C(c1ccccc1)c1ccccc1)C(=O)OC)N=C(c1ccccc1)c1ccccc1 (stereo not drawn)	> 100 µM	> 100 µM	> 100 µM	> 100 µM	> 100 µM	> 100 µM	> 100 µM	> 100 µM	> 100 µM	> 100 µM	> 100 µM	> 100 µM	> 100 µM		> 100 µM	> 100 µM		> 100 µM	
COc1ccccc1N1C(=O)/C(=C\c2cc(OC)c(OC)c(OC)c2)S(=O)(=O)C1c1ccccc1 (stereo not drawn)	> 100 µM	> 100 µM	> 100 µM	> 100 µM	> 100 µM	> 100 µM	> 100 µM	76.5 µM		> 100 µM	> 100 µM	> 100 µM	> 100 µM	68 µM	> 100 µM	61.2 µM	> 100 µM		> 100 µM
Nc1ccc(C(=O)NN2C(=O)C(Cl)C2c2ccccc2O)cc1 (stereo not drawn)	> 100 µM	> 100 µM	> 100 µM	> 100 µM	> 100 µM	> 100 µM	75.2 µM	> 100 µM	> 100 µM	> 100 µM	> 100 µM	> 100 µM	> 100 µM	> 100 µM	> 100 µM	> 100 µM		48 µM	> 100 µM
COc1ccc(-c2cc(-c3ccco3)c(C#N)c(=S)n2C2OC(CO)C(O)C(O)C2O)cc1 (stereo not drawn)	> 100 µM	> 100 µM	> 100 µM	> 100 µM	> 100 µM	> 100 µM	> 100 µM	> 100 µM	> 100 µM	> 100 µM	> 100 µM	> 100 µM	> 100 µM	> 100 µM	> 100 µM	> 100 µM	> 100 µM		
O=C1c2ccccc2C(=O)c2c(O)c(O)cc(O)c21	64.3 µM	> 100 µM	> 100 µM	> 100 µM	> 100 µM	> 100 µM	49.2 µM	82.7 µM	> 100 µM	> 100 µM	> 100 µM	> 100 µM	> 100 µM	66 µM	> 100 µM	> 100 µM		56.5 µM	76.2 µM
COC(=O)/C=C(\S/C(=C(/c1ccc(OC)cc1)n1cc(C(=O)OC)c(C(=O)OC)n1)c1ccc(OC)cc1)C(=O)OC	13.2 µM	19 µM	18.5 µM	68.3 µM	37.9 µM	6.41 µM	16 µM	> 100 µM	49.5 µM	> 100 µM	> 100 µM	25.3 µM	4.8 µM	> 100 µM	> 100 µM	15.4 µM	> 100 µM	7.64 µM	
N#CC1=C(N2CCOCC2)CCC1	> 100 µM	> 100 µM	> 100 µM	> 100 µM	> 100 µM	> 100 µM	> 100 µM	> 100 µM	> 100 µM	> 100 µM	> 100 µM	> 100 µM	> 100 µM	> 100 µM	> 100 µM	> 100 µM	> 100 µM	> 100 µM	
COc1cc(CCCC(O)COc2cccc3c2C2(O)CCCCCC32)cc(OC)c1 (stereo not drawn)		28.1 µM	29.4 µM	40.6 µM	34 µM	44.4 µM	28.9 µM	38.5 µM	30.6 µM	30.5 µM	35.7 µM	32.5 µM	37.8 µM	28.1 µM	31.6 µM	> 100 µM		45.9 µM	19.9 µM
CSc1ccc(-c2cc(-c3nc4ccccc4[nH]3)nc3[nH]c(-c4nc5ccccc5[nH]4)cc(=O)c23)cc1	> 100 µM	> 100 µM	> 100 µM	> 100 µM	> 100 µM	> 100 µM	> 100 µM	> 100 µM	> 100 µM	> 100 µM	> 100 µM	> 100 µM	> 100 µM	> 100 µM		> 100 µM		> 100 µM	> 100 µM
C(/C=N/NC1=NCCCN1)=N\NC1=NCCCN1	> 100 µM		> 100 µM	> 100 µM		> 100 µM	> 100 µM	> 100 µM	> 100 µM		> 100 µM	> 100 µM	> 100 µM	> 100 µM	> 100 µM	> 100 µM	> 100 µM		> 100 µM
O=c1c2c3c(sc2nc2n1N=CN(c1ccc(Cl)cc1)C2)CCCC3	> 100 µM	> 100 µM	> 100 µM	> 100 µM	> 100 µM	> 100 µM	> 100 µM	> 100 µM	> 100 µM	> 100 µM	> 100 µM	> 100 µM	> 100 µM		> 100 µM	> 100 µM	> 100 µM		> 100 µM
C/C1=C\CC[C@@]2(C)O[C@@H]2[C@H]2OC(=O)C(C)C2C[C@H]1O (stereo partly drawn)		> 100 µM	> 100 µM	> 100 µM	> 100 µM	> 100 µM	> 100 µM	> 100 µM	> 100 µM	> 100 µM	> 100 µM	> 100 µM	> 100 µM		> 100 µM	> 100 µM	> 100 µM		> 100 µM
CSC(=N)N1N=C2c3ccccc3CC[C@@H]2[C@@H]1c1ccccc1	36 µM	33.5 µM	50.2 µM	49.3 µM	31 µM		22.4 µM	41.6 µM	44.4 µM	27.9 µM	27.4 µM	35.3 µM	29.1 µM	27.2 µM	29.9 µM	65 µM		34.6 µM	20.4 µM
Cc1ccccc1NC(=O)/C(C#N)=N\Nc1nc[nH]c1C(N)=O	> 100 µM	> 100 µM	> 100 µM	> 100 µM	> 100 µM	18.2 µM	> 100 µM	> 100 µM	> 100 µM	> 100 µM	> 100 µM	> 100 µM	> 100 µM		> 100 µM	> 100 µM	> 100 µM	> 100 µM	
C/C(=N/NC(=S)N1CCCC1)c1cccc(/C(C)=N\NC(=S)N2CCCC2)n1	2.63 µM	3.71 µM	3.4 µM		4.96 µM	3.37 µM	2.11 µM	4.65 µM	3.49 µM	2.24 µM	2.56 µM		2.35 µM	3.72 µM	4.33 µM	3.01 µM	3.23 µM	4.88 µM	
N#CC1=C(N)Nc2nc3ccccc3n2C1c1ccccc1 (stereo not drawn)	97.7 µM		68.5 µM		> 100 µM	> 100 µM	> 100 µM	> 100 µM	57.4 µM	> 100 µM	> 100 µM	> 100 µM	> 100 µM	> 100 µM	> 100 µM	> 100 µM	> 100 µM	> 100 µM	
CNC(=O)CN(CC(N)=O)C(=O)NC	> 100 µM	> 100 µM	> 100 µM	> 100 µM	> 100 µM	> 100 µM	> 100 µM	> 100 µM	> 100 µM	> 100 µM	> 100 µM		> 100 µM	> 100 µM	> 100 µM	> 100 µM		> 100 µM	> 100 µM
CN(C)CCN1C(=O)c2ccccc2C1(O)c1ccc(Cl)cc1 (stereo not drawn)	> 100 µM	> 100 µM	> 100 µM	> 100 µM	> 100 µM	> 100 µM	> 100 µM	> 100 µM	> 100 µM	> 100 µM	> 100 µM	63.9 µM	> 100 µM		> 100 µM	> 100 µM	> 100 µM	> 100 µM	
CCOC(=O)C1C(c2ccc([N+](=O)[O-])cc2)NC(c2ccc([N+](=O)[O-])cc2)C(C(=O)OC)S1(=O)=O (stereo not drawn)	> 100 µM	> 100 µM	> 100 µM	> 100 µM	> 100 µM	> 100 µM	> 100 µM	> 100 µM	> 100 µM	> 100 µM	> 100 µM	> 100 µM	> 100 µM		> 100 µM	> 100 µM		> 100 µM	
CCCCCCCCCCCCNC1(C)CNCCCNCCNCCCNC1	3.28 µM	3.1 µM	3.41 µM	3.82 µM		3.63 µM	5.83 µM	3.21 µM	12.8 µM	2.88 µM	3.21 µM	3.19 µM	2.92 µM	3.29 µM	3.27 µM				4.55 µM
